{"source": "patent US12582638B2", "about": "“Pharmaceutical composition for treating cancer, containing mTOR-signaling inhibitor as active ingredient” (KOREA ADVANCED INSTITUTE OF SCIENCE AND TECHNOLOGY, priority 2020, dated 2026)", "key": {"[1]": {"tested_on": "colorectal cancer patient-derived organoids", "assay": "Viability assay for organoids derived from colorectal cancer patients (imaging based)", "format": "cell-based, human", "conditions": "two colorectal cancer patient-derived organoids; 72 hours; FIG. 20", "procedure": "Two-type colorectal cancer patient-derived organoids (organoid from males at 01-46 of age and organoid from females at 02-74 of age) were treated with lomitapide and assayed for viability as follows.\nOrganoids derived from colorectal cancer patients were cultured for 5-7 days on 48-well plates (SPL, cat 32048).\nThe organoids were separated from the plates by pipetting with 200 μL of Dulbecco's phosphate-buffered saline (DPBS; Welgene LB001-02) and transferred to new tubes.\nFor staining, the separated organoids and Hoechst (Thermo, #H-1399) were added at a ratio of 1:2,000 to a culture medium and incubated for 30 minutes at 37° C. in a 5% CO2 incubator. […]\nFollowing the dispense, the number, state, and area of organoids were measured through DAPI signals with the aid of the high-contents imaging-based screening device Cytation 5 (Biotek).\nSubsequently, organoid areas were monitored three times every 24 hours for 72 hours without changing the culture medium.\nThe effectiveness of the drug was calculated by applying the raw data derived from Cytation 5 to the following formulas. […]\nEach organoid stained with Hoechst was measured for area (μm^2) by using Cytation 5, and areas of the all organoids in each well were summed.\nThe difference between the organoid area after 72 hours of drug treatment and the organoid area at the first 0 hour was calculated. […]"}, "NCI-H1838": {"tested_on": "NCI-H1838", "assay": "Cell viability, CellTiterGlo, 72 hours", "format": "cell-based", "conditions": "Homo sapiens, NCI-H1838 cells, Lung", "procedure": "(§1) In addition to the colorectal cells, 120 cancer cell lines treated with various concentrations of lomitapide were assayed for viability. To analyze cell viability, the cells were incubated with lomitapide at 37° C. for 72 hours in a 5% or 10% CO2 atmosphere and then equilibrated at room temperature for 1 hour, followed by addition of CellTiterGlo reagent (Promega). One hour later, luminescence was measured to calculate cell viability (%). The 120 cell lines were purchased from ATCC (American Type Culture Collection, Virginia, USA)."}, "RPMI 8226": {"tested_on": "RPMI 8226", "assay": "Cell viability, CellTiterGlo, 72 hours", "format": "cell-based", "conditions": "Homo sapiens, RPMI 8226 cells, Blood", "procedure": "as §1"}, "JIMT-1": {"tested_on": "JIMT-1", "assay": "Cell viability, CellTiterGlo, 72 hours", "format": "cell-based", "conditions": "Homo sapiens, JIMT-1 cells, Breast", "procedure": "as §1"}, "DLD-1": {"tested_on": "DLD-1", "assay": "Cell viability, CellTiterGlo, 72 hours", "format": "cell-based", "conditions": "Homo sapiens, DLD-1 cells, Colon", "procedure": "as §1"}, "HEC-1-A": {"tested_on": "HEC-1-A", "assay": "Cell viability, CellTiterGlo, 72 hours", "format": "cell-based", "conditions": "Homo sapiens, HEC-1-A cells, Endometrium", "procedure": "as §1"}, "MDA MB 435": {"tested_on": "MDA MB 435", "assay": "Cell viability, CellTiterGlo, 72 hours", "format": "cell-based", "conditions": "Homo sapiens, MDA MB 435 cells, Skin", "procedure": "as §1"}, "Caki-1": {"tested_on": "Caki-1", "assay": "Cell viability, CellTiterGlo, 72 hours", "format": "cell-based", "conditions": "Homo sapiens, Caki-1 cells, Kidney", "procedure": "as §1"}, "EFO-27": {"tested_on": "EFO-27", "assay": "Cell viability, CellTiterGlo, 72 hours", "format": "cell-based", "conditions": "Homo sapiens, EFO-27 cells, Ovary", "procedure": "as §1"}, "NCI-H1048": {"tested_on": "NCI-H1048", "assay": "Cell viability, CellTiterGlo, 72 hours", "format": "cell-based", "conditions": "Homo sapiens, NCI-H1048 cells, Lung", "procedure": "as §1"}, "SK-N-MC": {"tested_on": "SK-N-MC", "assay": "Cell viability, CellTiterGlo, 72 hours", "format": "cell-based", "conditions": "Homo sapiens, SK-N-MC cells, Brain", "procedure": "as §1"}, "SK.BR-3": {"tested_on": "SK.BR-3", "assay": "Cell viability, CellTiterGlo, 72 hours", "format": "cell-based", "conditions": "Homo sapiens, SK.BR-3 cells, Breast", "procedure": "as §1"}, "HCC38": {"tested_on": "HCC38", "assay": "Cell viability, CellTiterGlo, 72 hours", "format": "cell-based", "conditions": "Homo sapiens, HCC38 cells, Breast", "procedure": "as §1"}, "OPM-2": {"tested_on": "OPM-2", "assay": "Cell viability, CellTiterGlo, 72 hours", "format": "cell-based", "conditions": "Homo sapiens, OPM-2 cells, Blood", "procedure": "as §1"}, "Jurkat": {"tested_on": "Jurkat", "assay": "Cell viability, CellTiterGlo, 72 hours", "format": "cell-based", "conditions": "Homo sapiens, Jurkat cells, Blood", "procedure": "as §1"}, "NCI-H82": {"tested_on": "NCI-H82", "assay": "Cell viability, CellTiterGlo, 72 hours", "format": "cell-based", "conditions": "Homo sapiens, NCI-H82 cells, Lung", "procedure": "as §1"}, "OVK18": {"tested_on": "OVK18", "assay": "Cell viability, CellTiterGlo, 72 hours", "format": "cell-based", "conditions": "OVK18 cells, Ovary", "procedure": "as §1"}, "SCLC-21H": {"tested_on": "SCLC-21H", "assay": "Cell viability, CellTiterGlo, 72 hours", "format": "cell-based", "conditions": "Homo sapiens, SCLC-21H cells, Lung", "procedure": "as §1"}, "KMS-12-BM": {"tested_on": "KMS-12-BM", "assay": "Cell viability, CellTiterGlo, 72 hours", "format": "cell-based", "conditions": "Homo sapiens, KMS-12-BM cells, Blood", "procedure": "as §1"}, "HCT-15": {"tested_on": "HCT-15", "assay": "Cell viability, CellTiterGlo, 72 hours", "format": "cell-based", "conditions": "Homo sapiens, HCT-15 cells, Colon", "procedure": "as §1"}, "SNU-1": {"tested_on": "SNU-1", "assay": "Cell viability, CellTiterGlo, 72 hours", "format": "cell-based", "conditions": "Homo sapiens, SNU1, SNU-1 cells, Stomach", "procedure": "as §1"}, "MKN-45": {"tested_on": "MKN-45", "assay": "Cell viability, CellTiterGlo, 72 hours", "format": "cell-based", "conditions": "Homo sapiens, MKN-45 cells, Stomach", "procedure": "as §1"}, "DU-145": {"tested_on": "DU-145", "assay": "Cell viability, CellTiterGlo, 72 hours", "format": "cell-based", "conditions": "Homo sapiens, DU-145 cells, Prostate", "procedure": "as §1"}, "BT-20": {"tested_on": "BT-20", "assay": "Cell viability, CellTiterGlo, 72 hours", "format": "cell-based", "conditions": "Homo sapiens, BT-20 cells, Breast", "procedure": "as §1"}, "M07e": {"tested_on": "M07e", "assay": "Cell viability, CellTiterGlo, 72 hours", "format": "cell-based", "conditions": "M-07e, M07e cells, Blood", "procedure": "as §1"}, "SK-LU-1": {"tested_on": "SK-LU-1", "assay": "Cell viability, CellTiterGlo, 72 hours", "format": "cell-based", "conditions": "Homo sapiens, SK-LU-1 cells, Lung", "procedure": "as §1"}, "A2780": {"tested_on": "A2780", "assay": "Cell viability, CellTiterGlo, 72 hours", "format": "cell-based", "conditions": "Homo sapiens, A2780 cells, Ovary", "procedure": "as §1"}, "EFM-19": {"tested_on": "EFM-19", "assay": "Cell viability, CellTiterGlo, 72 hours", "format": "cell-based", "conditions": "Homo sapiens, EFM-19 cells, Breast", "procedure": "as §1"}, "MOLT-4": {"tested_on": "MOLT-4", "assay": "Cell viability, CellTiterGlo, 72 hours", "format": "cell-based", "conditions": "Homo sapiens, MOLT-4 cells, Blood", "procedure": "as §1"}}}
{"smiles": "O=C(NC1CCN(CCCCC2(C(=O)NCC(F)(F)F)c3ccccc3-c3ccccc32)CC1)c1ccccc1-c1ccc(C(F)(F)F)cc1", "note": "[lomitapide, N-(2,2,2-trifluoroethyl)-9-[4-[4-[[[4′-(trifluoromethyl)[1,1′-biphenyl]2-yl]carbonyl]amino]-1-piperidinyl]butyl]-9H-fluoren-9-carboxamide]", "values": [{"measurement": "organoid viability", "setting": "[1]", "value": "decreased in viability with the increase of the dose"}, {"measurement": "IC50", "setting": "NCI-H1838", "value": 4, "unit": "µM"}, {"measurement": "IC50", "setting": "RPMI 8226", "value": 2.1, "unit": "µM"}, {"measurement": "IC50", "setting": "JIMT-1", "value": 3.3, "unit": "µM"}, {"measurement": "IC50", "setting": "DLD-1", "value": 4.5, "unit": "µM"}, {"measurement": "IC50", "setting": "HEC-1-A", "value": 4.9, "unit": "µM"}, {"measurement": "IC50", "setting": "MDA MB 435", "value": 3, "unit": "µM"}, {"measurement": "IC50", "setting": "Caki-1", "value": 3.6, "unit": "µM"}, {"measurement": "IC50", "setting": "EFO-27", "value": 4, "unit": "µM"}, {"measurement": "IC50", "setting": "NCI-H1048", "value": 5.5, "unit": "µM"}, {"measurement": "IC50", "setting": "SK-N-MC", "value": 2.4, "unit": "µM"}, {"measurement": "IC50", "setting": "SK.BR-3", "value": 3.9, "unit": "µM"}, {"measurement": "IC50", "setting": "HCC38", "value": 6, "unit": "µM"}, {"measurement": "IC50", "setting": "OPM-2", "value": 4.4, "unit": "µM"}, {"measurement": "IC50", "setting": "Jurkat", "value": 3, "unit": "µM"}, {"measurement": "IC50", "setting": "NCI-H82", "value": 3.2, "unit": "µM"}, {"measurement": "IC50", "setting": "OVK18", "value": 3.3, "unit": "µM"}, {"measurement": "IC50", "setting": "SCLC-21H", "value": 3, "unit": "µM"}, {"measurement": "IC50", "setting": "KMS-12-BM", "value": 3.5, "unit": "µM"}, {"measurement": "IC50", "setting": "HCT-15", "value": 3.5, "unit": "µM"}, {"measurement": "IC50", "setting": "SNU-1", "value": 2.8, "unit": "µM"}, {"measurement": "IC50", "setting": "MKN-45", "value": 3.9, "unit": "µM"}, {"measurement": "IC50", "setting": "DU-145", "value": 5, "unit": "µM"}, {"measurement": "IC50", "setting": "BT-20", "value": 5, "unit": "µM"}, {"measurement": "IC50", "setting": "M07e", "value": 4.2, "unit": "µM"}, {"measurement": "IC50", "setting": "SK-LU-1", "value": 4.6, "unit": "µM"}, {"measurement": "IC50", "setting": "A2780", "value": 2.7, "unit": "µM"}, {"measurement": "IC50", "setting": "EFM-19", "value": 3.6, "unit": "µM"}, {"measurement": "IC50", "setting": "MOLT-4", "value": 3.6, "unit": "µM"}]}
